Data from paper PMC5242521 (PLoS ONE, 2017).

Experiments:
[1] = target: T1, OCT1 (Homo sapiens, UniProt O15245); test: Cis-inhibition of OCT1-mediated TEA accumulation in HEK-OCT1 cells; type: cell-based; details: pyrethroid 100 μM; 29 μM [14C]-TEA, 5 min
T1 sequence (O15245 1-554): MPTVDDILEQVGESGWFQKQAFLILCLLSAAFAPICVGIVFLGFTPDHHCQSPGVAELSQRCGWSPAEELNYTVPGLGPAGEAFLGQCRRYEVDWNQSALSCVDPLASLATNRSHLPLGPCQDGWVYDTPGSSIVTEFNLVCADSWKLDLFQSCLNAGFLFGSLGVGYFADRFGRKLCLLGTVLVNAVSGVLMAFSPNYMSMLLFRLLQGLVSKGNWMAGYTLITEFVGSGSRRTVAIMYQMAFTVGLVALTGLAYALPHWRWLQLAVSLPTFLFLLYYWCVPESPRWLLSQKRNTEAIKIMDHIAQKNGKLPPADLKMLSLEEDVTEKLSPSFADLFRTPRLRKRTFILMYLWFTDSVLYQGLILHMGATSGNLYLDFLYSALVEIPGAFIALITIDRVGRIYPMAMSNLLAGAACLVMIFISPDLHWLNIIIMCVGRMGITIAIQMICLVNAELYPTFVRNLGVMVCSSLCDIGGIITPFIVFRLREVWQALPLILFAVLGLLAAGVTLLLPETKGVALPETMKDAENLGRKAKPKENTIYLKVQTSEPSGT
Protocol: Intracellular accumulation of TEA was then determined by scintillation counting. […] After washing, cells were next re-incubated with 29 μM [1-^14C]-TEA for 5 min at 37°C. Intracellular accumulation of [1-^14C]-TEA was then determined by scintillation counting.

[2] = target: T2, OATP1B3 (Homo sapiens, UniProt Q9NPD5); test: OATP1B3 activity: fluorescein accumulation in CHO-OATP1B3 cells; type: cell-based; details: pyrethroid up to 100 μM
T2 construct: expressed in transfected cells; host or cells: CHO
T2 sequence (Q9NPD5 1-702): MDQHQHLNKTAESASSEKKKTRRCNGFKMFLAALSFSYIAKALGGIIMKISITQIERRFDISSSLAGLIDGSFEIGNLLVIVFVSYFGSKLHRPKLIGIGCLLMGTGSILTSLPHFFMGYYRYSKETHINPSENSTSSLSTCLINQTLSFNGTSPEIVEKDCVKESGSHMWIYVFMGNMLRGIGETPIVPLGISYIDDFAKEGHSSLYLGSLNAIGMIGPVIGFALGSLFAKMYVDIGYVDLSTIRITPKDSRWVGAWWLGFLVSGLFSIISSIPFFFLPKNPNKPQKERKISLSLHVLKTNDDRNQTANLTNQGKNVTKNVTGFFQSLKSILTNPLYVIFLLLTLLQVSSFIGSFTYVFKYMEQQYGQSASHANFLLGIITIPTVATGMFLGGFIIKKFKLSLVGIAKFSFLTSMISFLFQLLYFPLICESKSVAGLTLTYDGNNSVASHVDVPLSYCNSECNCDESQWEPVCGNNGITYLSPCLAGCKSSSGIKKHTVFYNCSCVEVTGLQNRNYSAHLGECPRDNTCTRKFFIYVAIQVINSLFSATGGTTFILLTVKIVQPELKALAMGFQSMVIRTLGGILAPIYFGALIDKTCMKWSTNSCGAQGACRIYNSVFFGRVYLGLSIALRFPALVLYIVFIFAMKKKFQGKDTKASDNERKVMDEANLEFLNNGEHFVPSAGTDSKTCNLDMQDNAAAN
Protocol: The effects of pyrethroids on activity of ABC and SLC transporters were determined through measuring cellular accumulation or retention of fluorescent or radiolabeled reference substrates for transporters, in the presence or absence of reference inhibitors, as previously described [41].
For accumulation assays (performed for all transporters, excepted BCRP), transporter-expressing cells usually cultured in 48-well plates were first incubated at 37°C with reference substrates in the absence (control) or presence of pyrethroids or reference inhibitors, in a well-defined transport assay medium [42], consisting of 136 mM NaCl, 5.3 mM KCl, 1.1mM KH2PO4, 0.8 mM MgSO4, 1.8 mM CaCl2, 10 mM HEPES, 11 mM D-glucose and adjusted to pH = 7.4 (excepted for MATE transporter assays, for which pH was set to 8.4). The nature of substrates and reference inhibitors and the incubation times with substrates, that varied according to the transporter, were selected in agreement with previous studies [41, 43] and are indicated in S3 Table. The total incubation volume with substrates was 200 μL/well. […]
Intracellular concentrations of reference substrates were initially expressed as fluorescence arbitrary units (for fluorescent dye substrates) or as moles (for radiolabeled substrates) and normalized to cellular protein content, determined by the Bradford method [44]. […]

| Structure (SMILES) | cis-effect on TEA accumulation in HEK-OCT1 cells [1] | effect on OATP1B3 activity [2] | effect on OATP1B3 activity ([2]; listed as Tetramethrin) |
| --- | --- | --- | --- |
| C=CCC1=C(C)C(OC(=O)C2C(C=C(C)C)C2(C)C)CC1=O (stereo not drawn) [allethrin] | markedly cis-inhibit |  |  |
| CC(C)=CC1C(C(=O)OCN2C(=O)C3=C(CCCC3)C2=O)C1(C)C (stereo not drawn) [tetramethrin] |  | failed to alter | No effect (up to 100 μM) |
